According to patent US20170190671A1, “BIS(ARYL)CATECHOL DERIVATIVES AS HERBICIDES” (E I DU PONT DE NEMOURS AND COMPANY, priority 2014, published 2017):

Legend:
Type in all cases: in vivo
[1] = tested on: morningglory (Ipomoea spp.); test: Test A postemergence; details: 0 to 100 scale
Procedure, shortened: (§1)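 Visual 0–100 rating (100 = complete control) taken about 10 d post-treatment relative to untreated checks. Preemergence: directed soil spray on sown loam/sand pots. Postemergence: seedlings 2–10 cm, 1–2 leaf. Non-phytotoxic solvent formulation with surfactant.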

[2] = tested on: large (Lg) crabgrass (Digitaria sanguinalis); test: Test A postemergence; details: 0 to 100 scale
Procedure, shortened: as §1

[3] = tested on: velvetleaf (Abutilon theophrasti); test: Test A postemergence; details: 0 to 100 scale
Procedure, shortened: as §1

[4] = tested on: deadnettle (henbit deadnettle, Lamium amplexicaule); test: Test D postemergence; details: scale 0 to 100
Source text: (§2) Seeds of plant species selected from bluegrass (annual bluegrass, Poa annua), blackgrass (Alopecurus myosuroides), canarygrass (Phalaris minor), chickweed (common chickweed, Stellaria media), cutleaf geranium (Geranium dissectum), galium (catchweed bedstraw, Galium aparine), downy bromegrass (Bromus tectorum), field poppy (Papaver rhoeas), field violet (Viola arvensis), green foxtail (Setaria viridis), deadnettle (henbit deadnettle, Lamium amplexicaule), Italian ryegrass (Lolium multiflorum), kochia (Kochia scoparia), lambsquarters (Chenopodium album), oilseed rape (Brassica napus), pigweed (Amaranthus retroflexus), chamomile (scentless chamomile, Matricaria inodora), Russian thistle (Salsola kali), speedwell (bird's-eye speedwell, Veronica persica), spring barley (Hordeum vulgare), spring wheat (Triticum aestivum), wild buckwheat (Polygonum convolvulus), wild mustard (Sinapis arvensis), wild oat (Avenafatua), wild radish (Raphanus raphanistrum), windgrass (Apera spica-venti), winter barley (Hordeum vulgare), and winter wheat (Triticum aestivum) were planted into a silt loam soil and treated preemergence with test chemicals formulated in a non-phytotoxic solvent mixture which included a surfactant.
(§3) At the same time, these species were planted in pots containing Redi-Earth® planting medium (Scotts Company, 14111 Scottslawn Road, Marysville, Ohio 43041) comprising spaghnum peat moss, vermiculite, wetting agent and starter nutrients and treated with postemergence applications of the test chemicals formulated in the same manner. Plants ranged in height from 2 to 18 cm (1- to 4-leaf stage). Treated plants and controls were maintained in a controlled growth environment for 14 to 21 days after which time all species were compared to controls and visually evaluated. Plant response ratings, summarized in Table D, are based on a scale of 0 to 100 where 0 is no effect and 100 is complete control. A dash (-) response means no test result.

[5] = tested on: field violet (Viola arvensis); test: Test D postemergence; details: scale 0 to 100
Source text: as §2, §3

[6] = tested on: speedwell (bird's-eye speedwell, Veronica persica); test: Test D postemergence; details: scale 0 to 100
Source text: as §2, §3

[7] = tested on: pigweed (Amaranthus retroflexus); test: Test D postemergence; details: scale 0 to 100
Source text: as §2, §3

[8] = tested on: cutleaf geranium (Geranium dissectum); test: Test D postemergence; details: scale 0 to 100
Source text: as §2, §3

[9] = tested on: spring barley (Hordeum vulgare); test: Test D postemergence; details: scale 0 to 100
Source text: as §2, §3

[10] = tested on: winter barley (Hordeum vulgare); test: Test D postemergence; details: scale 0 to 100
Source text: as §2, §3

[11] = tested on: canarygrass (Phalaris minor); test: Test D postemergence; details: scale 0 to 100
Source text: as §2, §3

[12] = tested on: blackgrass (Alopecurus myosuroides); test: Test D postemergence; details: scale 0 to 100
Source text: as §2, §3

kochia (Kochia scoparia) = test: Test D postemergence; details: scale 0 to 100
Source text: as §2, §3

[13] = tested on: wild buckwheat (Polygonum convolvulus); test: Test D postemergence; details: scale 0 to 100
Source text: as §2, §3

[14] = tested on: spring wheat (Triticum aestivum); test: Test D postemergence; details: scale 0 to 100
Source text: as §2, §3

[15] = tested on: chickweed (common chickweed, Stellaria media); test: Test D postemergence; details: scale 0 to 100
Source text: as §2, §3

[16] = tested on: wild radish (Raphanus raphanistrum); test: Test D postemergence; details: scale 0 to 100
Source text: as §2, §3

[17] = tested on: lambsquarters (Chenopodium album); test: Test D postemergence; details: scale 0 to 100
Source text: as §2, §3

Clc1cnc(Oc2cccc(Br)c2Oc2ncc(Cl)cn2)nc1 [Compound 19, 2,2′-[[3-bromo-1,2-phenylene]bis(oxy)]bis[5-chloropyrimidine]]
Plant response rating, Morningglory ([1]; 125 g ai/ha): 70
Plant response rating, Morningglory ([1]; 500 g ai/ha): 100
Plant response rating, Crabgrass, Large ([2]; 125 g ai/ha): 70
Plant response rating, Crabgrass, Large ([2]; 500 g ai/ha): 90
Plant response rating, Velvetleaf ([3]; 125 g ai/ha): 100
Plant response rating, Velvetleaf ([3]; 500 g ai/ha): 100

Fc1cccc(Oc2ncc(Cl)cn2)c1Oc1ncc(Cl)cn1 [Compound 21, 2,2′-[[3-fluoro-1,2-phenylene]bis(oxy)]bis[5-chloropyrimidine]]
Plant response rating, Morningglory ([1]; 125 g ai/ha): 90
Plant response rating, Morningglory ([1]; 500 g ai/ha): 100
Plant response rating, Crabgrass, Large ([2]; 125 g ai/ha): 80
Plant response rating, Crabgrass, Large ([2]; 500 g ai/ha): 90
Plant response rating, Velvetleaf ([3]; 125 g ai/ha): 90
Plant response rating, Velvetleaf ([3]; 500 g ai/ha): 100

Fc1cnc(Oc2c(F)cccc2Oc2ncc(Cl)cn2)nc1 [Compound 23]
Plant response rating, Deadnettle ([4]; 16 g ai/ha): 10
Plant response rating, Deadnettle ([4]; 31 g ai/ha): 20
Plant response rating, Deadnettle ([4]; 62 g ai/ha): 55
Plant response rating, Deadnettle ([4]; 125 g ai/ha): 70
Plant response rating, Field Violet ([5]; 16 g ai/ha): 15
Plant response rating, Field Violet ([5]; 31 g ai/ha): 60
Plant response rating, Field Violet ([5]; 62 g ai/ha): 60
Plant response rating, Field Violet ([5]; 125 g ai/ha): 70
Plant response rating, Speedwell ([6]; 16 g ai/ha): 40
Plant response rating, Speedwell ([6]; 31 g ai/ha): 75
Plant response rating, Speedwell ([6]; 62 g ai/ha): 100
Plant response rating, Speedwell ([6]; 125 g ai/ha): 100
Plant response rating, Pigweed ([7]; 16 g ai/ha): 55
Plant response rating, Pigweed ([7]; 31 g ai/ha): 60
Plant response rating, Pigweed ([7]; 62 g ai/ha): 70
Plant response rating, Pigweed ([7]; 125 g ai/ha): 90
Plant response rating, Geranium, Cutleaf ([8]; 16 g ai/ha): 25
Plant response rating, Geranium, Cutleaf ([8]; 31 g ai/ha): 45
Plant response rating, Geranium, Cutleaf ([8]; 62 g ai/ha): 45
Plant response rating, Geranium, Cutleaf ([8]; 125 g ai/ha): 65
Plant response rating, Barley, Spring ([9]; 16 g ai/ha): 0
Plant response rating, Barley, Spring ([9]; 31 g ai/ha): 5
Plant response rating, Barley, Spring ([9]; 62 g ai/ha): 5
Plant response rating, Barley, Spring ([9]; 125 g ai/ha): 10
Plant response rating, Barley, Winter ([10]; 16 g ai/ha): 0
Plant response rating, Barley, Winter ([10]; 31 g ai/ha): 5
Plant response rating, Barley, Winter ([10]; 62 g ai/ha): 5
Plant response rating, Barley, Winter ([10]; 125 g ai/ha): 5
Plant response rating, Canarygrass ([11]; 16 g ai/ha): 10
Plant response rating, Canarygrass ([11]; 31 g ai/ha): 20
Plant response rating, Canarygrass ([11]; 62 g ai/ha): 25
Plant response rating, Canarygrass ([11]; 125 g ai/ha): 55
Plant response rating, Blackgrass ([12]; 16 g ai/ha): 10
Plant response rating, Blackgrass ([12]; 31 g ai/ha): 20
Plant response rating, Blackgrass ([12]; 62 g ai/ha): 35
Plant response rating, Blackgrass ([12]; 125 g ai/ha): 55
Plant response rating, Kochia (kochia (Kochia scoparia); 16 g ai/ha): 15
Plant response rating, Kochia (kochia (Kochia scoparia); 31 g ai/ha): 20
Plant response rating, Kochia (kochia (Kochia scoparia); 62 g ai/ha): 30
Plant response rating, Kochia (kochia (Kochia scoparia); 125 g ai/ha): 50
Plant response rating, Buckwheat, Wild ([13]; 16 g ai/ha): 50
Plant response rating, Buckwheat, Wild ([13]; 31 g ai/ha): 70
Plant response rating, Buckwheat, Wild ([13]; 62 g ai/ha): 75
Plant response rating, Buckwheat, Wild ([13]; 125 g ai/ha): 75
Plant response rating, Wheat, Spring ([14]; 16 g ai/ha): 0
Plant response rating, Wheat, Spring ([14]; 31 g ai/ha): 5
Plant response rating, Wheat, Spring ([14]; 62 g ai/ha): 5
Plant response rating, Wheat, Spring ([14]; 125 g ai/ha): 10
Plant response rating, Chickweed ([15]; 16 g ai/ha): 60
Plant response rating, Chickweed ([15]; 31 g ai/ha): 70
Plant response rating, Chickweed ([15]; 62 g ai/ha): 70
Plant response rating, Chickweed ([15]; 125 g ai/ha): 80
Plant response rating, Radish, Wild ([16]; 16 g ai/ha): 25
Plant response rating, Radish, Wild ([16]; 31 g ai/ha): 80
Plant response rating, Radish, Wild ([16]; 62 g ai/ha): 80
Plant response rating, Radish, Wild ([16]; 125 g ai/ha): 85
Plant response rating, Lambsquarters ([17]; 16 g ai/ha): 10
Plant response rating, Lambsquarters ([17]; 31 g ai/ha): 30
Plant response rating, Lambsquarters ([17]; 62 g ai/ha): 60
Plant response rating, Lambsquarters ([17]; 125 g ai/ha): 60

FC(F)(F)c1cnc(Oc2c(Br)cccc2Oc2ncc(Cl)cn2)nc1 [Compound 24]
Plant response rating, Deadnettle ([4]; 16 g ai/ha): 55
Plant response rating, Deadnettle ([4]; 31 g ai/ha): 70
Plant response rating, Deadnettle ([4]; 62 g ai/ha): 75
Plant response rating, Deadnettle ([4]; 125 g ai/ha): 85
Plant response rating, Field Violet ([5]; 16 g ai/ha): 65
Plant response rating, Field Violet ([5]; 31 g ai/ha): 75
Plant response rating, Field Violet ([5]; 62 g ai/ha): 85
Plant response rating, Field Violet ([5]; 125 g ai/ha): 98
Plant response rating, Speedwell ([6]; 16 g ai/ha): 35
Plant response rating, Speedwell ([6]; 31 g ai/ha): 60
Plant response rating, Speedwell ([6]; 62 g ai/ha): 80
Plant response rating, Speedwell ([6]; 125 g ai/ha): 90
Plant response rating, Pigweed ([7]; 16 g ai/ha): 85
Plant response rating, Pigweed ([7]; 31 g ai/ha): 95
Plant response rating, Pigweed ([7]; 62 g ai/ha): 98
Plant response rating, Pigweed ([7]; 125 g ai/ha): 100
Plant response rating, Geranium, Cutleaf ([8]; 16 g ai/ha): 20
Plant response rating, Geranium, Cutleaf ([8]; 31 g ai/ha): 30
Plant response rating, Geranium, Cutleaf ([8]; 62 g ai/ha): 45
Plant response rating, Geranium, Cutleaf ([8]; 125 g ai/ha): 65
Plant response rating, Barley, Spring ([9]; 16 g ai/ha): 15
Plant response rating, Barley, Spring ([9]; 31 g ai/ha): 20
Plant response rating, Barley, Spring ([9]; 62 g ai/ha): 20
Plant response rating, Barley, Spring ([9]; 125 g ai/ha): 25
Plant response rating, Barley, Winter ([10]; 16 g ai/ha): 10
Plant response rating, Barley, Winter ([10]; 31 g ai/ha): 15
Plant response rating, Barley, Winter ([10]; 62 g ai/ha): 20
Plant response rating, Barley, Winter ([10]; 125 g ai/ha): 25
Plant response rating, Canarygrass ([11]; 16 g ai/ha): 30
Plant response rating, Canarygrass ([11]; 31 g ai/ha): 35
Plant response rating, Canarygrass ([11]; 62 g ai/ha): 45
Plant response rating, Canarygrass ([11]; 125 g ai/ha): 45
Plant response rating, Blackgrass ([12]; 16 g ai/ha): 25
Plant response rating, Blackgrass ([12]; 31 g ai/ha): 30
Plant response rating, Blackgrass ([12]; 62 g ai/ha): 35
Plant response rating, Blackgrass ([12]; 125 g ai/ha): 45
Plant response rating, Kochia (kochia (Kochia scoparia); 16 g ai/ha): 40
Plant response rating, Kochia (kochia (Kochia scoparia); 31 g ai/ha): 65
Plant response rating, Kochia (kochia (Kochia scoparia); 62 g ai/ha): 80
Plant response rating, Kochia (kochia (Kochia scoparia); 125 g ai/ha): 95
Plant response rating, Buckwheat, Wild ([13]; 16 g ai/ha): 60
Plant response rating, Buckwheat, Wild ([13]; 31 g ai/ha): 60
Plant response rating, Buckwheat, Wild ([13]; 62 g ai/ha): 75
Plant response rating, Buckwheat, Wild ([13]; 125 g ai/ha): 95
Plant response rating, Wheat, Spring ([14]; 16 g ai/ha): 10
Plant response rating, Wheat, Spring ([14]; 31 g ai/ha): 15
Plant response rating, Wheat, Spring ([14]; 62 g ai/ha): 20
Plant response rating, Wheat, Spring ([14]; 125 g ai/ha): 20
Plant response rating, Chickweed ([15]; 16 g ai/ha): 60
Plant response rating, Chickweed ([15]; 31 g ai/ha): 70
Plant response rating, Chickweed ([15]; 62 g ai/ha): 75
Plant response rating, Chickweed ([15]; 125 g ai/ha): 85
Plant response rating, Radish, Wild ([16]; 16 g ai/ha): 75
Plant response rating, Radish, Wild ([16]; 31 g ai/ha): 75
Plant response rating, Radish, Wild ([16]; 62 g ai/ha): 95
Plant response rating, Radish, Wild ([16]; 125 g ai/ha): 100
Plant response rating, Lambsquarters ([17]; 16 g ai/ha): 35
Plant response rating, Lambsquarters ([17]; 31 g ai/ha): 45
Plant response rating, Lambsquarters ([17]; 62 g ai/ha): 60
Plant response rating, Lambsquarters ([17]; 125 g ai/ha): 75
